Experimental data as given in patent publication US7863274B2, “Deuterium enriched analogues of tadalafil as PDE5 inhibitors” (Concert Pharmaceuticals Inc., priority 2005, dated 2011).

Experiments:
[1] = system: spontaneously hypertensive rats; test: Hypotensive effects in the spontaneous hypertensive rat model (Cerep); type: in vivo; conditions: oral administration, 10 mg/kg, 8 rats per group, over 8 h
Procedure: Hypotensive effects in the spontaneous hypertensive rat model. Effects of the products of examples 7, 9, 12, 18, 27 and 30 are tested by oral administration to spontaneously hypertensive rats at Cerep, using essentially the procedure of Bazil M K et. al., J. Cardiovasc. Pharmacol. 1993 22: 897 and a sample size of 8 rats per group.

[2] = humans, cited from earlier work

[2H]C1([2H])Oc2ccc([C@@H]3c4[nH]c5ccccc5c4C[C@@H]4C(=O)N(C)CC(=O)N34)cc2O1 [Example 27, (6R,12aR)-6-(2,2-dideuterobenzo[d]-1,3-dioxol-5-yl)-2-methyl-1,2,3,4,6,7,12,12a-octahydropyrazino[1′,2′:1,6]pyrido[3,4-b]indole-1,4-dione]
reduction in blood pressure [1]: significant reductions in blood pressure sustained over 8 h

[2H][C@@]1(c2ccc3c(c2)OC(F)(F)O3)c2[nH]c3ccccc3c2C[C@@H]2C(=O)N(C)CC(=O)N21 [Example 12, (6R,12aR)-6-Deutero-6-(2,2-difluorobenzo[d]-1,3-dioxol-5-yl)2-methyl-1,2,3,4,6,7,12,12a-octahydropyrazino[1′,2′:1,6]pyrido[3,4-b]indole-1,4-dione]
reduction in blood pressure [1]: significant reductions in blood pressure sustained over 8 h

CN1CC(=O)N2[C@H](c3ccc4c(c3)OC(F)(F)O4)c3[nH]c4ccccc4c3C[C@@H]2C1=O [Example 18, (6R,12aR)-6-(2,2-Difluorobenzo[d]-1,3-dioxol-5-yl)-1,2,3,4,6,7,12,12a-octahydropyrazino[1′,2′:1,6]pyrido[3,4-b]indole-2-methyl-1,4-dione]
reduction in blood pressure [1]: significant reductions in blood pressure sustained over 8 h

[2H]C([2H])([2H])N1CC(=O)N2[C@H](c3ccc4c(c3)OC(F)(F)O4)c3[nH]c4ccccc4c3C[C@@H]2C1=O [Example 7, (6R,12aR)-6-(2,2-Difluorobenzo[d]-1,3-dioxol-5-yl)-1,2,3,4,6,7,12,12a-octahydropyrazino[1′,2′:1,6]pyrido[3,4-b]indole-2-trideuteromethyl-1,4-dione]
reduction in blood pressure [1]: significant reductions in blood pressure sustained over 8 h

[2H]c1cc2c(cc1[C@@H]1c3[nH]c4ccccc4c3C[C@@H]3C(=O)N(C)CC(=O)N13)OC(F)(F)O2 [Example 9, (6R,12aR)-6-(6-Deutero-2,2-difluorobenzo[d]-1,3-dioxol-5-yl)-2-methyl-1,2,3,4,6,7,12,12a-octahydropyrazino[1′,2′:1,6]pyrido[3,4-b]indole-1,4-dione]
reduction in blood pressure [1]: significant reductions in blood pressure sustained over 8 h

CN1CC(=O)N2[C@H](c3ccc4c(c3)OCO4)c3[nH]c4ccccc4c3C[C@@H]2C1=O [Compound 1, (6R,12aR)-6-(1,3-benzodioxol-5-yl)-2-methyl-1,2,3,4,6,7,12,12a-octahydropyrazino[1′,2′:1,6]pyrido[3,4-b]indole-1,4-dione]
half-life and exposure (AUC) when dosed concurrently with CYP3A4 inhibitors ([2]; co-dosing with inhibitors of CYP3A4): clinically meaningful increases
absorption following oral administration ([2]; oral): well absorbed
amount excreted unchanged ([2]; oral): only a minor amount

[2H]C1([2H])Oc2ccc([C@@H]3c4[nH]c5ccccc5c4C[C@@H]4C(=O)N(C([2H])([2H])[2H])CC(=O)N34)cc2O1 [Example 30, (6R,12aR)-6-(2,2-dideuterobenzo[d]-1,3-dioxol-5-yl)-1,2,3,4,6,7,12,12a-octahydropyrazino[1′,2′:1,6]pyrido[3,4-b]indole-2-trideuteromethyl-1,4-dione]
reduction in blood pressure [1]: significant reductions in blood pressure sustained over 8 h
